From patent US12553903B2, “Ivaltinostat combination therapy for treating pancreatic cancer” (CG Pharmaceuticals, Inc, priority 2023, dated 2026)

How the values were obtained:
[1] = system: germline BRCA-mutated metastatic pancreatic cancer; details: cited from earlier work
advanced PDAC [2] = details: with gemcitabine; cited from earlier work
pancreatic cancer = details: 1250 mg/m^2 twice daily for 2 weeks followed by a 1-week rest, first line; cited from earlier work
advanced PDAC [3] = details: combined with gemcitabine; cited from earlier work
[4] = system: patients with advanced PDAC; assay: Phase II safety and adverse events (NCI-CTCAE v4.0); assay type: in vivo; details: for patients with dose reduced due to occurrence of AEs: three of 24 patients
Method: (§1) Tumor evaluation was performed at baseline, at the end of every two cycles, and/or at the end of the trial. For patients with measurable/non-measurable lesions, the Response Evaluation Criteria in Solid Tumors version 1.1 was used to evaluate target/non-target lesions. Serial measurements of carbohydrate antigen 19-9 (CA19-9) levels were performed at baseline and at the beginning of each treatment cycle. Patients were followed up for survival until death or study closure. Safety evaluation included vital signs, adverse events (AEs), adverse drug reactions, serious AEs, ECG, and clinic al laboratory tests, which were performed on days 1, 8 and 15 each cycle. AEs were graded according to the Common Terminology Criteria for Adverse Events, version 4.0, by the National Cancer Institute.
Full analysis set (FAS), per protocol (PP), and safety set analysis were defined according to the study protocol. FAS was defined as patients who had been evaluated for tumor response at least once after baseline. The PP analysis set included patients who received at least 70% and more of the intended study drug throughout the treatment period and without any significant violation of the protocol.

clinical = details: human, in vivo, iv
Method: The MTD was defined as the dose at which one or zero patients developed a DLT among six-patient cohort. Based on the 3+3 dose escalation design, each cohort consists of three or six subjects. If one in three subjects had experienced DLT in a specific dose, the dose was administered to an additional three subjects and a total of six patients were checked for the occurrence of DLT. If two or more subjects in any cohort had experienced a DLT, the previous dose was considered MTD, and the dose escalation ended. […] Gemcitabine and erlotinib were administered as fixed doses; gemcitabine (1000 mg/m^2 intravenously), and erlotinib (100 mg/day orally), whereas ivaltinostat was administered according to the dose level for each cohort. Each cycle consisted of 28 days. Both ivaltinostat and gemcitabine were administered on days 1, 8, and 15 and erlotinib was administrate d daily for each 28-day cycle.

[5] = system: patients with unresectable pancreatic ductal adenocarcinoma (PDAC); assay type: in vivo
Excerpt: The present disclosure discloses a phase I/II study that evaluated the safety and efficacy of the histone deacetylase (HDAC) inhibitor, ivaltinostat, in combination with gemcitabine and erlotinib for advanced pancreatic ductal adenocarcinoma (PDAC). Patients diagnosed with unresectable, histologically confirmed PDAC who had not undergone previous therapy were eligible. […] In phase II, patients received a six-cycle treatment with the MTD of ivaltinostat determined in phase I. The primary endpoint was the objective response rate (ORR). Secondary endpoints included overall survival (OS), disease control rate (DCR), and progression-free survival (PFS). The MTD of ivaltinostat for the phase II trial was determined to be 250 mg/m^2. In phase II, 24 patients were enrolled. The median OS and PFS were 8.6 (95% confidence interval [CI]: 5.3-11.2) and 5.3 months (95% CI: 3.7-5.8). Of the 16 patients evaluated for response, ORR and DCR were 25.0% and 93.8% with a median OS/PFS of 10.8 (95% CI: 8.3-16.7)/5.8 (95% CI: 4.6-6.7) months.
One study disclosed herein was a single-arm phase I/II clinical study. The study evaluated the efficacy and safety of ivaltinostat in combination with gemcitabine and erlotinib for advanced pancreatic cancer. […] The DLT was assessed according to the National Cancer Institute Common Toxicity Criteria version 4.0. […]

[6] = system: advanced pancreatic ductal adenocarcinoma (PDAC); assay: Phase II efficacy (ORR, DCR, OS, PFS); assay type: in vivo, human
Method: Both ivaltinostat and gemcitabine were administered via the same protocol as that in the phase I study, until development of unacceptable toxicity or disease progression. The entire treatment period was six cycles and could be extended to 12 cycles if the patients wanted to continue the regimen and the principal investigator agreed. Tumor assessment was evaluated at the end of every two cycles. Dose reduction or delay could be applied for intolerant patients according to the study protocol.
The primary endpoint was the ORR, which was defined as the rate (%) of patients who had best tumor assessment with complete response (CR) or partial response (PR) during the treatment period. Secondary endpoints included disease control rate (DCR), OS, and progression-free survival (PFS). DCR was defined as the rate (%) of patients who had best tumor assessment with CR, PR, or stable disease (SD) during the treatment period. OS was defined as the time from the date of the first enrollment to the date of death from any cause. Patients who were still alive or withdrew at the date of cut off were censored. PFS was defined as the time from the date of the first enrollment to the date of tumor progression or to the date of death from any cause. Patients were followed up for survival until death, withdrawal, or study closure.
as §1
Full analysis set (FAS), per protocol (PP), and safety set analysis were defined according to the study protocol. FAS was defined as patients who had been evaluated for tumor response at least once after baseline. The PP analysis set included patients who received at least 70% and more of the intended study drug throughout the treatment period and without any significant violation of the protocol. The safety cohort included all patients who had received the study drug at least once.
Statistical Analysis: To identify MTD and DLT, the 3+3 dose escalation design was utilized and based on the method of determining MTD described above. In total, 10 patients were enrolled in the phase I study. The estimated sample size for the phase II study after the determination of MTD was calculated based on Simon's 2 stage design25 with a reference of published data of 8.6% ORR from a phase III randomized controlled trial of gemcitabine and erlotinib combination therapy. Assuming a difference in response probability of study drug=20%, α=0.05, and statistical power=90%, the estimated minimally required sample size for phase II study based on binomial distribution probability may be 9 for initial stage and increase to a total of 24 patients if more than one patient had responded to the study drug during the initial stage. The safety analysis included all patients who had received a single dose of the study drug. The main efficacy analysis was based on the FAS population, defined as a group of patients who had received at least single dose of study drug and had at least one tumor response evaluation after the baseline assessment.

[7] = system: metastatic pancreatic cancer; details: first line; cited from earlier work
[8] = system: PDAC after gemcitabine-based therapy; details: with bortezomib, seven patients enrolled; cited from earlier work
[9] = Grade 3, treatment-related, phase II (n = 24)
[10] = Grade 4, treatment-related, phase II (n = 24)
[11] = Total grade 3 and 4, treatment-related, phase II (n = 24)
[12] = FAS analysis (n=16), with gemcitabine + erlotinib

O=C(c1cc(Cc2n[nH]c(=O)c3ccccc23)ccc1F)N1CCN(C(=O)C2CC2)CC1 [olaparib]
median PFS ([1]; maintenance after ≥16 weeks of platinum-based therapy, gBRCA mutations, placebo 3.8): 7.4 months
HR for PFS vs. placebo ([1]; p=0.004): 0.53

Nc1ccccc1NC(=O)c1ccc(CNc2nccc(-c3cccnc3)n2)cc1 [mocetinostat]
clinical activity and toxicity (advanced PDAC [2]): showed only limited clinical activity

CCCCCOC(=O)Nc1nc(=O)n([C@@H]2O[C@H](C)[C@@H](O)[C@H]2O)cc1F [Capecitabine, capecitabine]
efficacy and tolerability (pancreatic cancer): effective and tolerable

CC(=O)Nc1ccc(C(=O)Nc2ccccc2N)cc1 [tacedinaline]
clinical benefit vs gemcitabine alone (advanced PDAC [3]): no advantage over gemcitabine alone

CN(C)CCCNC(=O)/C(=C/CCCCC(=O)NO)COc1cccc2ccccc12.O=P(O)(O)O [ivaltinostat, (E)-N1-(3-(dimethylamino)propyl)-N8-hydroxy-2-((naphthalen-1-yloxy)methyl)oct-2-enediamide phosphate]
Anemia, % of patients [4, 9]: (16.7) %
Anemia, number of patients [4, 9]: 4
Anorexia, % of patients [4, 9]: (8.3) %
Anorexia, number of patients [4, 9]: 2
Fatigue, % of patients [4, 9]: (8.3) %
Fatigue, number of patients [4, 9]: 2
Febrile neutropenia, % of patients [4, 9]: (8.3) %
Febrile neutropenia, number of patients [4, 9]: 2
Neutropenia, % of patients [4, 9]: (12.5) %
Pneumonia, number of patients [4, 9]: 0
Thrombocytopenia, % of patients [4, 9]: (16.7) %
Thrombocytopenia, number of patients [4, 9]: 4
Neutropenia, number of patients ([4]; Grade 3, treatment-related, phase II (n = 24), with gemcitabine + erlotinib): 3
Anemia, number of patients [4, 10]: 0
Anorexia, number of patients [4, 10]: 0
Fatigue, number of patients [4, 10]: 0
Febrile neutropenia, number of patients [4, 10]: 0
Neutropenia, % of patients [4, 10]: (20.8) %
Neutropenia, number of patients [4, 10]: 5
Pneumonia, % of patients [4, 10]: (4.2) %
Pneumonia, number of patients [4, 10]: 1
Thrombocytopenia, % of patients [4, 10]: (12.5) %
Thrombocytopenia, number of patients [4, 10]: 3
Anorexia, % of patients [4, 11]: (8.3) %
Anorexia, number of patients [4, 11]: 2
Fatigue, % of patients [4, 11]: (8.3) %
Fatigue, number of patients [4, 11]: 2
Febrile neutropenia, % of patients [4, 11]: (8.3) %
Febrile neutropenia, number of patients [4, 11]: 2
Pneumonia, % of patients [4, 11]: (4.2) %
Pneumonia, number of patients [4, 11]: 1
ADR decreased appetite ([4]; phase II, 24 subjects): 11 events
ADR decreased platelet count ([4]; phase II, 24 subjects): 15 events
ADR nausea ([4]; phase II, 24 subjects): 10 events
ADR rash ([4]; phase II, 24 subjects): 11 events
ADR vomiting ([4]; phase II, 24 subjects): 10 events
ADRs with grade 3 or 4 severity ([4]; phase II, 24 subjects): 26
AEs reported ([4]; phase II, 24 subjects): 218
grade 5 (death) events ([4]; phase II, 24 subjects): no grade 5 (death) events
adverse drug reactions (ADRs) ([4]; phase II, all 24 subjects): 114
patients with dose reduced due to occurrence of AEs ([4]; phase II): 12.5%
AUC(0-t) (clinical; 187.5 mg/m2): 28300 ng·h/mL
Cmax (clinical; 187.5 mg/m2): 9550 ng/mL
half-life (clinical; 187.5 mg/m2): 7.3 h
AUC(0-t) (clinical; 250 mg/m2): 35100 ng·h/mL
Cmax (clinical; 250 mg/m2): 8060 ng/mL
half-life (clinical; 250 mg/m2): 5.7 h
AUC(0-t) (clinical; 312.5 mg/m2): 65400 ng·h/mL
Cmax (clinical; 312.5 mg/m2): 12800 ng/mL
half-life (clinical; 312.5 mg/m2): 6.6 h
dose-limiting toxicity (DLT) ([5]; human, in vivo, 28 day): One DLT, a febrile neutropenia of grade 3
maximum tolerable dose (MTD) / recommended dose for phase II ([5]; iv days 1, 8, 15 with gemcitabine 1000 mg/m2 iv and erlotinib 100 mg/day orally, 28-day cycle): 250 mg/m^2
PRs, % of patients ([6]; FAS analysis (n=16)): 25%
PRs, number of patients ([6]; FAS analysis (n=16)): 4
SDs, % of patients ([6]; FAS analysis (n=16)): 68.8%
SDs, number of patients ([6]; FAS analysis (n=16)): 11
median OS ([6]; FAS analysis (n=16)): 10.8 months
median PFS ([6]; FAS analysis (n=16)): 5.8 months
DCR [6, 12]: 93.8%
ORR [6, 12]: 25.0%
DCR ([6]; PP analysis (n=10)): 100%
ORR ([6]; PP analysis (n=10)): 30%
PRs, % of patients ([6]; PP analysis (n=10)): 30%
PRs, number of patients ([6]; PP analysis (n=10)): 3
SDs, % of patients ([6]; PP analysis (n=10)): 70%
SDs, number of patients ([6]; PP analysis (n=10)): 7
median OS ([6]; PP analysis (n=10)): 11.7 months
median PFS ([6]; PP analysis (n=10)): 5.9 months
median OS ([6]; all patients (n=23), ivaltinostat 250 mg/m^2 + gemcitabine 1000 mg/m^2 + erlotinib 100 mg/day): 8.6 months
median PFS ([6]; all patients (n=23), ivaltinostat 250 mg/m^2 + gemcitabine + erlotinib): 5.3 months

Nc1ccn([C@@H]2O[C@H](CO)[C@@H](O)C2(F)F)c(=O)n1 [gemcitabine, reference compound]
patients with dose reduced due to occurrence of AEs ([4]; phase II): 12.5%

FOLFIRINOX
median progression-free survival (PFS) [7]: 6.4 months
overall survival (OS) [7]: 11.1 months

C#Cc1cccc(Nc2ncnc3cc(OCCOC)c(OCCOC)cc23)c1 [erlotinib, reference compound]
patients with dose reduced ([4]; phase II, 24 patients): no patient received a reduced dose

Cc1[nH]c2ccccc2c1CCNCc1ccc(/C=C/C(=O)NO)cc1 [panovinostat]
study outcome [8]: suspended due to lack of response and toxicity
